Results from patent US11726079B2, “Lighting systems and methods of using lighting systems for in vitro potency assay for Photofrin” (Concordia Laboratories, Inc., priority 2012, dated 2023).
Where “and” joins values, the source holds several entries; their conditions need not be identical. Equal entries are not always repeated.

Key:
[1] = test system: A549 human lung carcinoma cells; assay: Control for the activity of Photofrin® in the absence of irradiation (+D, −L), viability relative to cell control; type: cell-based
Protocol: The plate is covered with a black lid and placed in the incubator for four hours to allow absorption of the drug by the cells. The plate is then removed from the incubator, the drug is aspirated, the wells are washed with Dulbecco's phosphate buffered saline (DPBS) and fresh, pre-warmed medium is added to the wells. The columns of wells not to be irradiated are covered with foil strips, the black lid is exchanged for a clear lid, and the plate is then moved to the irradiation template beneath the light beam and irradiated for ten minutes, for a total of 3.3 joules. The plate is returned to the incubator and assessed for viability using XTT after 24 hours. The wells covered with foil strips are important controls for the activity of Photofrin® in the absence of irradiation and the effect of light on the cells in the absence of drug.
The optical absorbance of the wells in column 1 (high drug concentration, no cells) is evaluated for absorption at 450 nm to ensure that the drug is not interfering with the XTT assay. The percent viability of each of the wells in columns 2-9 and 11 is calculated relative to the mean value of column 10 (cell control, no drug, no light). For each dose response obtained, a four parameter logistic (4PL) nonlinear regression analysis is performed of the percent viability versus the log-Photofrin® concentration. The point of inflection of the regression curve (C value) is defined as the EC50 and used in the calculation of relative potency. Curve fitting and calculation of the EC50 is performed with Softmax v5.4.2 (Molecular Devices, Inc.) or Prism v.5.04 (GraphPad, Software Inc.) software. The mean percent viability of columns 9 and 11 is also calculated.
Critical aspects of the system suitability will include the acceptable performance of the assay controls. The expectation is that the viability of cells receiving no drug but with light (−D, +L) and cells receiving a high concentration of drug but no light (+D, −L) should approximate the viability of the cell control not receiving drug or light (CC). The percent viability of all samples is based on the CC, which is calculated set at 1.00 and is not included in the Table.

[2] = test system: A549 human lung carcinoma cells; assay: Photofrin® dose response of irradiated A549 cells with MTT as the endpoint; type: cell-based
Protocol: XTT and MTT are two types of formazan dyes that are used to measure mitochondrial function as a surrogate for cell viability. A Photofrin® dose response curve is performed with either XTT or MTT as the endpoint. The results obtained with these two endpoints differ by approximately 15%, but each produces consistent values (see Table 2, below). As the potency of an unknown will be determined with respect to a Reference Lot, the absolute EC50 value is not critical. Given that the use of the MTT dye requires an additional solubilization step, XTT is selected for use in this assay.

Substance: porfimer sodium [Photofrin®]
- +D, −L/CC ([1]; 70 μg/mL drug, no irradiation, ratio to cell control (no drug, no irradiation), Plate 1 (left to right dilution; controls in columns 9-11)): 0.994
- +D, −L/CC ([1]; 70 μg/mL drug, no irradiation, ratio to cell control, Plate 2 (placement Test, Standard; controls in columns 9-11)): 0.926
- +D, −L/CC ([1]; 70 μg/mL drug, no irradiation, ratio to cell control, Plate 3 (right to left dilution; controls in columns 9-11)): 0.981
- +D, −L/CC ([1]; 70 μg/mL drug, no irradiation, ratio to cell control, Plate 4 (left to right dilution; controls in columns 9-11)): 0.928
- +D, −L/CC ([1]; 70 μg/mL drug, no irradiation, ratio to cell control, Plate 5 (left to right dilution; controls in columns 2-4)): 1.00
- +D, −L/CC, Mean ([1]; 70 μg/mL drug, no irradiation, ratio to cell control, mean across Plates 1-5 of positional analysis): 0.967
- +D, −L ([1]; high concentration of drug, no light, viability based on cell control set at 1.00, experiments of Table 1, black plates): 1.05 and 0.893 and 1.09
- +D, −L ([1]; high concentration of drug, no light, viability based on cell control set at 1.00, experiments of Table 1, clear plates (significant cell killing, excluded from the analysis)): 0.012 and 0.019 and 0.024
- +D, −L ([1]; high concentration of drug, no light, viability based on cell control set at 1.00, experiments of Table 2, black plates): 1.06 and 0.947 and 0.986
- +D, −L ([1]; high concentration of drug, no light, viability based on cell control set at 1.00, experiments of Table 4, black plates): 0.994 and 0.926 and 0.981 and 0.928 and 1.00
- +D, −L ([1]; high concentration of drug, no light, viability based on cell control set at 1.00, experiments of Table 5, black plates): 0.999 and 1.02 and 1.00 and 1.29 and 0.973
- +D, −L ([1]; high concentration of drug, no light, viability based on cell control set at 1.00, experiments of Table 6, black plates): 0.990 and 0.981 and 0.977
- +D, −L ([1]; high concentration of drug, no light, viability based on cell control set at 1.00, experiments of Table 7, black plates): 0.973 and 1.00
- +D, −L ([1]; high concentration of drug, no light, viability based on cell control set at 1.00, experiments of Table 8, black plates): 1.02 and 0.992 and 0.995 and 0.959 and 0.985
- +D, −L ([1]; high concentration of drug, no light, viability based on cell control set at 1.00, experiments of Table 9, black plates): 1.01 and 0.898 and 0.959
- +D, −L ([1]; high concentration of drug, no light, viability based on cell control set at 1.00, experiments of Table 10, black plates): 1.09 and 1.08 and 0.995
- +D, −L ([1]; high concentration of drug, no light, viability based on cell control set at 1.00, experiments of Table 11, black plates): 0.980 and 0.973 and 1.02 and 0.956
- +D, −L ([1]; high concentration of drug, no light, viability based on cell control set at 1.00, experiments of Table 12, black plates): 0.990 and 0.906 and 1.03 and 1.02 and 1.00
- +D, −L, Mean ([1]; high concentration of drug, no light, viability based on cell control set at 1.00, mean of all experiments, clear plate values excluded): 1.00
- EC50-MTT ([2]; experiment PIN-009, in µg/mL): 8.28 and 8.11
- EC50-MTT, Mean ([2]; experiment PIN-009, mean): 8.2 µg/mL
